In patent US20250382322A1, “DIAGNOSTICS FOR DETECTING ECTO-5'-NUCLEOTIDASE (CD73)” (EBERHARD KARLS UNIVERSITÄT TÜBINGEN, priority 2022, published 2025):

Assays:
human NTPDase2 = target: T1, human NTPDase2 (Homo sapiens, UniProt Q9Y5L3); experiment: Capillary electrophoresis assay for human NTPDase2; assay type: biochemical; conditions: ATP (100 μM) as substrate
T1 sequence (Q9Y5L3 1-495): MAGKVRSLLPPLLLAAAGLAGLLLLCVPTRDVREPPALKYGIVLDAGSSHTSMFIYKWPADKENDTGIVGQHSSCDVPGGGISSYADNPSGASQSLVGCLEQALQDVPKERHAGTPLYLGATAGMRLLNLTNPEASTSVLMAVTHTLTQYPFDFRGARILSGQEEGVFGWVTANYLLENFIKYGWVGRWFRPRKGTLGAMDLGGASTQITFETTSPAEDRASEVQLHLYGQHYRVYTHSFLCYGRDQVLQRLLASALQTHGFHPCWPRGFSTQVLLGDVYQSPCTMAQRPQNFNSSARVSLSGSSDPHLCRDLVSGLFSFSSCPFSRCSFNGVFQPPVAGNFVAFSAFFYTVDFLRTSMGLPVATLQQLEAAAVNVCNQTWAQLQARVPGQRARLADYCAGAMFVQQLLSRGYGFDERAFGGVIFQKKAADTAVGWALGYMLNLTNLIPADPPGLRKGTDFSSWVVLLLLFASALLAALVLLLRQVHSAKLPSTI
Protocol: (§1) Inhibitory activity of the CD73 inhibitors 2 and 20 at human NTPDases 1, 2, 3, and 8 was investigated using ATP (100 μM) as a substrate according to previously published procedures.^24 ATP and 2 were co-incubated with recombinantly expressed human NTPDases at 37° C. for 30 min, and the enzymatic reaction was terminated by heating at 90° C. for 10 min. The amount of enzyme preparation was adjusted to ensure 10-20% of substrate conversion. The formed products were separated by capillary electrophoresis (CE) and individually quantitated by diode array detection (DAD) at a wavelength of 260 nm. For inhibition analysis, at least three independent experiments were performed each in triplicate. The inhibition of the enzyme activity was calculated in relation to the positive control without inhibitor and plotted by GraphPad Prism 8 software (GraphPad software, San Diego, CA, USA) (for results see Table 2 and Table 3).
(§2) Test compounds were investigated at a concentration of 50 μM, and 100 μM ATP substrate according to published procedures.^24 Recombinantly expressed human NTPDases were employed. The amount of enzyme preparation was adjusted to ensure 10-20% of substrate conversion. […] The inhibition of the enzyme activity was calculated in relation to the positive control without inhibitor and plotted in GraphPad Prism 8 software (GraphPad software, San Diego, CA, USA). […]

human NTPDase1 = target: T2, human NTPDase1 (Homo sapiens, UniProt P49961); experiment: Capillary electrophoresis assay for human NTPDase1; assay type: biochemical; conditions: ATP (100 μM) as substrate
T2 sequence (P49961 1-510): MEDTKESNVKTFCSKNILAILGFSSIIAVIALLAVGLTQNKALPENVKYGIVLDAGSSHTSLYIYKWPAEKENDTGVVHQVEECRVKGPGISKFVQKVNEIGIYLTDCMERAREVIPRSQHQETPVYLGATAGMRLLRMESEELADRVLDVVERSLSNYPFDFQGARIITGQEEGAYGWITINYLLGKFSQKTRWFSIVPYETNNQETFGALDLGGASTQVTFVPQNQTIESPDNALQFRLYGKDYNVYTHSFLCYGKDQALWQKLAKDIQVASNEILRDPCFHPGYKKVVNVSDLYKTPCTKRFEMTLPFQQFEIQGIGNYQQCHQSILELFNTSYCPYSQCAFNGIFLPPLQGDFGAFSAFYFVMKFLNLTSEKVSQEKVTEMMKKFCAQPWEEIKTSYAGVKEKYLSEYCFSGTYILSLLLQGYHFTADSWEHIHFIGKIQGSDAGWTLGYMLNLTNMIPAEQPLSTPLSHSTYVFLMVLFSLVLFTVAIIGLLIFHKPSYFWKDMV
Protocol: as §1, §2

IC50 (human NTPDase2) [µM] | IC50 (human NTPDase1) [µM] | Structure (SMILES)
< 50 | 27.6 | O=C(NCCCCCCNC(=O)c1ccc2c(c1)C1(OC2=O)c2ccc(O)cc2Oc2cc(O)ccc21)c1ccc(CNc2nc(Cl)nc3c2ncn3[C@@H]2O[C@H](COP(=O)(O)CP(=O)(O)O)[C@@H](O)[C@H]2O)cc1 [Compound 20, (((((2R,3S,4R,5R)-5-(2-chloro-6-((4-((6-(3′,6′-dihydroxy-3-oxo-3H-spiro[isobenzofuran-1,9′-xanthene]-6-carboxamido)-hexyl)carbamoyl)benzyl)amino)-9H-purin-9-yl)-3,4-dihydroxytetrahydrofuran-2-yl)methoxy)(hydroxy)phosphoryl)methyl)phosphonic acid]
> 50 | > 50 | CCCN(Cc1ccc(-c2cn(CCF)nn2)cc1)c1nc(Cl)nc2c1ncn2[C@@H]1O[C@H](COP(=O)(O)CP(=O)(O)O)C(O)C1O (stereo partly shown) [Compound 2]
